Results reported in patent US20240226100A1, “CONTROL OF PROTEIN EXPRESSION WITH TMP-PROTAC COMPOUNDS” (THE TRUSTEES OF THE UNIVERSITY OF PENNSYLVANIA, priority 2021, published 2024).

Experiments:
[1] = system: eDHFR-Luc; test: Degradation of luciferase in Jurkat-DL cells, luminescence; format: cell-based, Escherichia coli; conditions: 4, 8 and 18 h, varying doses
[2] = system: eDHFR-YFP; test: Degradation of YFP in HEK293T-DYL cells, flow cytometry; format: cell-based, Escherichia coli; conditions: 72 and 96 h, varying doses
Description: The left panel represents the mean YFP fluorescence and the right panel represents the same data in percent of maximum YFP fluorescence normalized to HEK293T-DYL treated with DMSO.

[3] = system: FAP CAR-eDHFR direct fusion (DF); test: Dose response of surface CAR expression in primary human FAP-eDHFR DF CAR T cells, flow cytometry; format: cell-based; conditions: for degradation / downregulation of CAR molecules from the surface of CAR T cells: primary human FAP-eDHFR CAR T cells
Experimental: Generated CAR T cells were pelleted, resuspended in 2% BSA in PBS (Invitrogen), and incubated with Alexa Fluor® 647 AffiniPure F(ab′2) fragment goat anti-mouse IgG (Jackson ImmunoResearch Laboratories) for 30 minutes at room temperature. Stained cells were washed 3 times with PBS, and were analyzed on a flow cytometer (LSR II, BD Biosciences) for CAR and/or BFP expression. All flow data were analyzed using FlowJo software (FlowJo).
Following incubation, the cells were washed and stained with Alexa Fluor® 647 AffiniPure F(ab′2) fragment goat anti-mouse IgG (Jackson ImmunoResearch Laboratories) as described under “Flow Cytometry”, and their surface expression was analyzed on a flow cytometer (LSR II, BD Biosciences).
Data plotted as raw CAR stain fluorescence is shown in the left panel and percent of maximum CAR expression is shown in the right panel.
Values are reported as percent of maximum CAR expression (i.e. relative to CAR T cells that were treated with vehicle control). Each color represents a different donor (n=3).

[4] = system: TNFα; test: Cytokine release assay, TNFα ELISA of killing assay supernatant; format: cell-based, human
Experimental: The concentration of TNF-α and IFN-g in the supernatants following killing assay was determined by ELISA.

[5] = system: eDHFR-YFP; test: Washout experiment, reversal of YFP degradation in Jurkat eDHFR-YFP+ cells, flow cytometry; format: cell-based, Escherichia coli; conditions: 100 nM, washout after 24 h
Experimental: Jurkat^eDHFR-YFP+ cells were seeded in a clear (Falcon) 12-well plate (3×10^5 cells/well) in complete media and incubated overnight. The following day, all wells were dosed with 100 nM of 7c, and cells were sampled at 0, 4, 8, 12, and 24 h following incubation (1 well was sampled per time point). Following 24 h incubation, remaining wells of cells were collected and centrifuged (Thermo Scientific Sorvall Legend X1R) at 1200 rpm for 5 minutes. Cells were washed 3 times with PBS and seeded on a new clear (Falcon) 12-well plate in fresh complete media. The cells were sampled at 3, 6, 24, 48, and 72 h following the drug washout. All cells were fixed in 4% PFA following sampling, and all samples from […] were analyzed together on a flow cytometer (BD).

[6] = system: eDHFR-Luc; test: Time course in OVCAR8 eDHFR-Luc cells, luminescence; format: cell-based, Escherichia coli; conditions: between 390 and 24 nM
Experimental: OVCAR8^eDHR-luc+ cells were plated in black wall/clear bottom (Falcon) 96-well plates (4×10^4 cells/well) in 200 uL of complete media and incubated with serially diluted compound 7c at −48, −24, −12, −8 and −4 h and analyzed together at 0 h (t=0). Luciferin is prepared to 1× with complete media and 50 uL of Luciferin solution is added to the cells which are then analyzed by plate reader (ThermoFisher Varioskan Plusplate).
After the addition of Luciferin/complete media solution, luminescence was measured at the same time (t=0) by plate reader. 90% degradation of eDHFR-luc measured in 12 h between 390 and 24 nM, and 95% degradation of eDHFR-luc measured in 24 h between 390 and 24 nM.

[7] = system: FAP CAR-eDHFR direct fusion (DF); test: Inhibitor test in primary human FAP-eDHFR DF CAR T cells, flow cytometry; format: cell-based; conditions: primary human FAP-eDHFR DF CAR T cells
Experimental: Following pre-incubation, either 100 nM 7c or vehicle control DMSO (Sigma) was added to the wells, and cells were incubated with the drug for another 4 hours. Following incubation, the cells were washed and their surface CAR expression was assessed on a flow cytometer (BD Biosciences).
Following pre-incubation, the cells were incubated with 100 nM 7c for 4 hours and their CAR expression was assessed on a flow cytometer.

SMILES: COc1cc(Cc2cnc(N)nc2N)cc(OC)c1OCCCC(=O)NCCOCCOCCNc1cccc2c1C(=O)N(C1CCC(=O)NC1=O)C2=O (centres unmarked) [Compound 7c, 4-(4-((2,4-diaminopyrimidin-5-yl)methyl)-2,6-dimethoxyphenoxy)-N-(2-(2-(2-((2-(2,6-dioxopiperidin-3-yl)-1,3-dioxoisoindolin-4-yl)amino)ethoxy)ethoxy)ethyl)butanamide]
- degradation of luciferase [1]: degraded
- degradation of YFP [2]: degraded
- CAR expression remaining, percent of maximum CAR expression ([3]; as early as 4 hours post-incubation, relative to vehicle control): 20 % of maximum CAR expression
- degradation / downregulation of CAR molecules from the surface of CAR T cells [3]: leads to degradation of CAR molecules from the surface of CAR T cells
- degradation / downregulation of CAR molecules from the surface of CAR T cells ([3]; listed as TMP-POM 7c): effectively downregulates CAR in a dose-dependent and reversible manner
- TNFα secretion across concentrations ([4]; different concentrations, 10:1 E:T): inhibition of CAR T cell signaling
- T cell TNF-α release ([4]; supernatant of killing assay, 100 nM compound): inhibits
- time to full return of YFP expression to baseline following drug washout [5]: approximately 72 h
- degradation of eDHFR-luc ([6]; 12 h): 90%
- degradation of eDHFR-luc ([6]; 24 h): 95%
- mechanism of CAR downregulation [7]: proteosome-mediated degradation process
